According to US8785499B2 (priority 2009, dated 2014):
pIC50: −log10 of the molar value.

Key:
baNadD = baNadD (Bacillus anthracis, UniProt C3L5T6); assay: biochemical; assay type: biochemical
ecNadD = ecNadD (Escherichia coli (strain K12), UniProt P0A752); assay: biochemical; assay type: biochemical

Chain of baNadD (C3L5T6 whole entry, looked up): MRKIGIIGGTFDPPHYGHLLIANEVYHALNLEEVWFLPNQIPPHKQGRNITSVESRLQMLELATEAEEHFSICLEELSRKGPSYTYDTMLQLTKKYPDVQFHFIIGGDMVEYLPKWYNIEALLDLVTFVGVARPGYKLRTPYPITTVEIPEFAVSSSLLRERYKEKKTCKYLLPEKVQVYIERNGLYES

SMILES	[…]. anthracis (baNadD) [%]	[…]. coli (ecNadD) [%]	other results
Brc1cnc2nc(/C=C/c3ccccc3)[nH]c2c1 [compound 006]	34	62	–
O=C1NC(=O)/C(=C\c2ccc(C(=O)O)cc2)N1 [compound 007]	34	54	–
CC(=O)Nc1ccc(S(=O)(=O)Nc2ccc(Cl)cc2Cl)cc1 [compound 008]	0	47	–
COC(=O)c1sc(NC(=O)/C=C/C(=O)O)nc1C [compound 009]	0	45	–
NS(=O)(=O)c1ccc(Nc2nc(-c3ccc(O)c(O)c3)cs2)cc1 [compound 010]	89	32	–
O=C(Nc1ncccn1)c1sc2ccccc2c1Cl [compound 011]	0	31	–
COc1cc(/C=N/c2ccc3[nH]c(=O)[nH]c3c2)ccc1OC(C)=O [compound 012]	0	30	–
N=C(N)NNC(=S)Nc1ccc(Cl)cc1 [compound 013]	0	30	–
Cc1cc(Nc2cccc(C(=O)O)c2)n2ncnc2n1 [compound 014]	0	30	–
O=C1Nc2ccccc2/C1=C/Nc1ccc(Br)cc1F [compound 015]	–	–	pIC50 (baNadD; IC50 baNadD): 4.80; inhibition at 50 µM (baNadD; read-out: INHIBITION (%) B. anthracis): 57%; pIC50 (ecNadD; IC50 ecNadD): 4.52; inhibition at 100 µM (ecNadD; read-out: INHIBITION (%) E. coli): 29%
O=C(O)c1ccc([N+](=O)[O-])cc1C(=O)Nc1ccc(Cl)cc1 [compound 016]	75	29	–
O=C(O)CCC(=O)NNC(=O)c1cccc(O)c1 [compound 017]	0	27	–
Nc1nnc(CCSc2cc(Cl)ccc2Cl)s1 [compound 018]	0	27	–
N#CC1=C(N)OC(c2cccs2)=C(C#N)C1c1cccs1 (centres unmarked) [compound 019]	27	26	–
O=C(Nc1ccc(NC(=O)c2cccs2)cc1)c1ccccc1 [compound 020]	0	26	–
NS(=O)(=O)c1ccc(N/C=C/C(=O)c2ccc(Cl)s2)cc1 [compound 021]	79	24	–
Nc1nc(-c2ccc(NC(=O)c3ccc(Cl)cc3)cc2)cs1 [compound 022]	31	24	–
Cc1c(NC(=O)CSS(=O)(=O)O)c(=O)n(-c2ccccc2)n1C [compound 023]	34	24	–
O=C(O)CCCCCN1C(=O)c2ccc(F)cc2C1=O [compound 024]	0	23	–
Cc1ccc(F)cc1NC(=O)CSCC(=O)O [compound 025]	55	23	–
O=c1[nH]c(SCc2nc3ccccc3[nH]2)nc2ccccc12 [compound 026]	0	23	–
O=C(O)c1cccc(NCN2C(=O)c3ccccc3C2=O)c1 [compound 027]	0	23	–
O=C(NNC(=O)c1ccco1)c1cccc(I)c1 [compound 028]	7	23	–
O=C(O)CCC(C(=O)O)N1C(=O)c2cc(Cl)c(Cl)cc2C1=O (centres unmarked) [compound 029]	0	22	–

SMILES	[…]. anthracis (baNadD) [%]	[…]. coli (ecNadD) [%]	other results
O=C(O)c1ccc(Nc2nc(-c3ccc(Cl)cc3)cs2)cc1 [compound 030]	28	22	–
O=C(O)c1nccnc1C(=O)Nc1ccc(Br)cc1 [compound 031]	4	21	–
COc1c(C)cc(Br)cc1C(=O)Nc1ccc(S(N)(=O)=O)cc1 [compound 032]	8	21	–
Nc1cc(NCCCCCC(=O)O)ccc1[N+](=O)[O-] [compound 034]	1	21	–
CC(=O)Nc1ccc(NS(=O)(=O)c2ccc(O)c(C(=O)O)c2)cc1 [compound 035]	0	20	–
O=C(Nc1ccccc1C(=O)O)c1ccc(Br)o1 [compound 036]	0	20	–
COc1cc(Br)cc(/C=C2/SC(=S)NC2=O)c1O [compound 037]	0	20	–
Oc1c(Cl)cc(Cl)cc1/C=N/c1nc[nH]n1 [compound 038]	0	20	–
Nc1nonc1C(=O)N/N=C/c1cc(Br)cc(Br)c1O [compound 040]	20	19	–
O=C(O)[C@@H]1CSC(c2ccc(Cl)cc2Cl)N1 (some centres unmarked) [compound 041]	39	19	–
Nc1ccc(NC(=O)c2cc(Cl)ccc2O)c(Cl)c1 [compound 043]	2	18	–
Oc1c(Br)cc(Cl)cc1/C=N/c1ccccn1 [compound 044]	0	17	–
CCOc1cc(/C=N/O)cc(I)c1O [compound 045]	0	17	–
Cc1ccc(OCC(=O)Nc2nnc[nH]2)c(Br)c1 [compound 046]	71	17	–
O=c1cc(O)c2sc(Nc3cccc(Cl)c3)nc2[nH]1 [compound 047]	0	17	–
NS(=O)(=O)c1ccc(CCNC(=O)c2cccc(Cl)c2)cc1 [compound 048]	14	16	–
O=C(/C=C/c1ccc2c(c1)OCO2)Nc1ncc([N+](=O)[O-])s1 [compound 049]	10	16	–
NS(=O)(=O)c1ccc(NC(=O)c2cc3cc(Br)ccc3oc2=O)cc1 [compound 050]	38	16	–
Nc1nonc1C(=O)NCCNS(=O)(=O)Cc1ccccc1 [compound 051]	0	16	–
COC(=O)c1cc(O)c(C(=O)Nc2ccc(Cl)c(Cl)c2)s1 [compound 052]	24	16	–
CCc1c(O)nc(SC2CC(=O)N(c3ccccc3)C2=O)nc1O (centres unmarked) [compound 053]	0	16	–
Nc1ccc(/C=C/c2cccc(C(=O)O)n2)cc1 [compound 054]	27	15	–
CC(Sc1ccccc1)C(=O)Nc1ccccc1C(=O)O (centres unmarked) [compound 055]	15	15	–
O=[N+]([O-])c1ccc(/C=N\NS(=O)(=O)c2ccc(Cl)cc2)o1 [compound 057]	28	15	–

SMILES	[…]. anthracis (baNadD) [%]	[…]. coli (ecNadD) [%]	other results
Nc1nnc(SCC(=O)Nc2nccs2)n1-c1ccccc1 [compound 058]	0	15	–
NS(=O)(=O)c1ccc2nc(NC(=O)c3ccncc3)sc2c1 [compound 059]	0	15	–
Oc1ccc(Br)cc1/C=N/Nc1nnn[nH]1 [compound 060]	0	15	–
O=[N+]([O-])/C=C/Nc1cccc([N+](=O)[O-])c1 [compound 061]	0	14	–
N/C(=N\OCC(=O)Nc1ccc([NH2+][O-])cc1)c1nonc1N [compound 062]	0	14	–
O=[N+]([O-])c1cc2c(cc1/C=N/Nc1nnn[nH]1)OCO2 [compound 063]	81	14	–
CCn1c(SCC(N)=O)nnc1-c1ccc(Cl)cc1 [compound 065]	0	14	–
Cc1cc(N/C=C2\N=C(c3ccc(Cl)cc3)OC2=O)no1 [compound 066]	80	13	–
O=C(O)c1cc(C(=O)O)c2cc(Oc3ccc4nc(C(=O)O)cc(C(=O)O)c4c3)ccc2n1 [compound 067]	1	13	–
O=C1C/C(=C/NCCc2ccc(O)cc2)C(=O)N1 [compound 068]	10	13	–
CN1C(=O)S/C(=C\c2ccc(OCC(=O)O)c(I)c2)C1=O [compound 069]	7	13	–
O=C(O)/C=C/c1ccc(S(=O)(=O)NCc2ccc3c(c2)OCO3)cc1 [compound 070]	5	13	–
Cc1ccc(C(=O)Nc2ccccc2)cc1S(=O)(=O)Nc1ccccn1 [compound 071]	7	12	–
O=C(CSS(=O)(=O)O)NCCc1c[nH]c2ccccc12 [compound 072]	0	12	–
NS(=O)(=O)c1ccc(NC(=O)CSc2ccc3ccccc3n2)cc1 [compound 073]	0	12	–
CSc1ccc(/C=N/c2ccc(S(N)(=O)=O)cc2)cc1 [compound 076]	0	12	–
O=C(CSc1nc2ccccc2o1)Nc1ccc(Cl)cn1 [compound 077]	0	12	–
N=C(N)N/N=C/c1ccc([N+](=O)[O-])cc1 [compound 078]	0	12	–
O=C(NCCc1nc2ccccc2[nH]1)c1cccs1 [compound 079]	0	12	–
O=C(COc1ccc(Cl)cc1)N/N=C/c1cccs1 [compound 080]	24	11	–
NS(=O)(=O)c1ccc(NC(=O)CCc2ccccc2)cc1 [compound 081]	0	11	–
O=c1[nH]c2ccc(NC(=S)Nc3ccccc3)cc2[nH]1 [compound 083]	0	11	–
NS(=O)(=O)c1ccc(NC(=S)Nc2ccc(Cl)cc2F)cc1 [compound 084]	0	11	–
NS(=O)(=O)c1ccc(NC(=S)NCc2ccccc2)cc1 [compound 085]	0	11	–
